Data taken from patent publication US10479789B2, “Pyrido[1,2-A]pyrimidone analog, crystal form thereof, intermediate thereof and preparation method therefor” (Chia Tai Tianqing Pharmaceutical Group Co., Ltd., priority 2015, dated 2019).

Key:
PI3K (p110α) = target: T1, PI3K (p110α) (Homo sapiens, UniProt P42336); assay: ADP-Glo Assay I, in vitro enzyme activity; format: biochemical; conditions: 0.33 nM PI3Kalpha
T1 construct: purchased Millipore 14-602-K
Procedure: The test compounds were diluted with a three-fold concentration gradient, and 10 concentrations (10000 nM to 0.5 nM) were obtained in total.
50 nL of the test compounds of the present invention was transferred to a reaction plate (PerkinElmer #6007299), and added with 3 μL of an enzyme/substrate mixture (0.33 nM PI3Kalpha, Millipore #14-602-K/166.5 μM PIP2); after incubation for 20 min, 2 μL of an ATP solution (100 μM) was added to initiate the reaction; after 2 hours of reaction at room temperature, the kinase reaction was stopped by adding 5 μL ADP-Glo reagent, followed by incubation at room temperature for 60 min, allowing the remaining unreacted ATP to be completely digested; and the resulting solution was added with 10 μL of a kinase detection reagent and incubated at room temperature for 40 min, and then the […] was read on Envision. PIP2, ATP, the ADP-Glo reagent, and the kinase assay reagents are all from an ADP-Glo Kinase Assay Kit (Promega #V1792).
IC50 was calculated using the standard 4-parameter fitting method (Model 205, XL-fit, iDBS).

mTOR = target: T2, mTOR (Homo sapiens, UniProt P42345); assay: mTOR kinase activity, 32P-ATP P81 filter-binding method; format: biochemical; conditions: 3 μM 4EBP1 and 10 μM ATP; read-out: IC50 of mTOR enzyme activity
T2 construct: N-terminal GST tag (amino acid 1360-2549, molecular weight=163.9 kDa); GST (N); host or cells: insect cells
T2 sequence (P42345 1360-2549): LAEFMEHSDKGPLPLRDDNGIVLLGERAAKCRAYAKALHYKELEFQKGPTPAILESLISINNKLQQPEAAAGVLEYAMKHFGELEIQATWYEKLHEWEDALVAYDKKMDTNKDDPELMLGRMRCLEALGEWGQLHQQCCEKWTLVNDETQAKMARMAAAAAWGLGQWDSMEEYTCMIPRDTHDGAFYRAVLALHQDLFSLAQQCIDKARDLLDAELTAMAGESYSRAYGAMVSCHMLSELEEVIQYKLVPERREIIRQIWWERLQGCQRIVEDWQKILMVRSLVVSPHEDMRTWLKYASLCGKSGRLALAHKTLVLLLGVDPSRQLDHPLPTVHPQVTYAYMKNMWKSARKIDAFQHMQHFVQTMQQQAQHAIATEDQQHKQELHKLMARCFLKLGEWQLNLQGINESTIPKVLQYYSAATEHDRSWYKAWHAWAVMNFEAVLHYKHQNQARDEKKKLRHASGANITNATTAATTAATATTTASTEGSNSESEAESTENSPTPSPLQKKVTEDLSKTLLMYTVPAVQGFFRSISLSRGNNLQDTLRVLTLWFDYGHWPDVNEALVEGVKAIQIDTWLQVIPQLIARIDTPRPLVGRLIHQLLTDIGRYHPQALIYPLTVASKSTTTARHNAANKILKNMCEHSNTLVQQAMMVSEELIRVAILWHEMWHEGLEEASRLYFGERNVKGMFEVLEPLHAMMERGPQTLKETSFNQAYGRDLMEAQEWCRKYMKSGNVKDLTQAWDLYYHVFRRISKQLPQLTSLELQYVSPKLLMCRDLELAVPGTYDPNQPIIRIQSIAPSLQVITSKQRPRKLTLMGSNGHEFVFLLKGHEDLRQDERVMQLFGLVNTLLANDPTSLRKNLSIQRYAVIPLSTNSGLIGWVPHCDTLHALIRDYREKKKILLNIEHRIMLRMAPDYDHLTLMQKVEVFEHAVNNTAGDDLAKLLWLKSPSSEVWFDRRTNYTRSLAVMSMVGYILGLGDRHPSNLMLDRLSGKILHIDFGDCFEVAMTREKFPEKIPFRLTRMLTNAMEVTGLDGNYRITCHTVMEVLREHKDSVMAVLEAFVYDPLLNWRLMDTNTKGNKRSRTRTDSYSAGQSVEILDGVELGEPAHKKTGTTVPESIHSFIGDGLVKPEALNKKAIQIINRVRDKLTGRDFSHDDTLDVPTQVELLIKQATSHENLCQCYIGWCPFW
Procedure: The activity of the test compounds of the present invention on mTOR kinase was tested by the test method below.
Reaction Buffer: 20 mM Hepes (pH 7.5), 10 mM MgCl2, 2 mM MnCl2, 1 mM EGTA, 0.02% Brij35, 0.02 mg/mL BSA, 0.1 mM Na3VO4, 2 mM DTT, 2% DMSO.
Enzyme for reaction: humanized recombinant mTOR fragment with a N-terminal GST tag (amino acid 1360-2549, molecular weight=163.9 kDa), expressed in insect cells.
Reaction Substrate: humanized recombinant full-length 4EBP1 with a N-terminal His tag (molecular weight=13.6 kDa), expressed in bacteria;
Reaction conditions: 3 μM 4EBP1 and 10 μM ATP.
1. The reaction substrate and other reaction factors were added to the freshly prepared reaction buffer.
2. The kinase was added to the substrate reaction and gently mixed.
3. The compound dissolved in 100% DMSO was transferred into the kinase reaction solution using Acoustic technology (Echo 550; nanoliter rang) and then incubated at room temperature for 20 min.
4. An appropriate concentration of ^32P-ATP was add to the reaction system.
5. It was incubated at room temperature for 2 hours.
6. Kinase activity was detected by the P81 filter-binding method.

PI3Kδ = PI3Kδ (Homo sapiens, UniProt O00329); assay: ADP-Glo Assay II, PI3Kδ; format: biochemical; conditions: read-out: IC50 for inhibition of PI3Kδ activity
Chain of PI3Kδ (O00329 whole entry): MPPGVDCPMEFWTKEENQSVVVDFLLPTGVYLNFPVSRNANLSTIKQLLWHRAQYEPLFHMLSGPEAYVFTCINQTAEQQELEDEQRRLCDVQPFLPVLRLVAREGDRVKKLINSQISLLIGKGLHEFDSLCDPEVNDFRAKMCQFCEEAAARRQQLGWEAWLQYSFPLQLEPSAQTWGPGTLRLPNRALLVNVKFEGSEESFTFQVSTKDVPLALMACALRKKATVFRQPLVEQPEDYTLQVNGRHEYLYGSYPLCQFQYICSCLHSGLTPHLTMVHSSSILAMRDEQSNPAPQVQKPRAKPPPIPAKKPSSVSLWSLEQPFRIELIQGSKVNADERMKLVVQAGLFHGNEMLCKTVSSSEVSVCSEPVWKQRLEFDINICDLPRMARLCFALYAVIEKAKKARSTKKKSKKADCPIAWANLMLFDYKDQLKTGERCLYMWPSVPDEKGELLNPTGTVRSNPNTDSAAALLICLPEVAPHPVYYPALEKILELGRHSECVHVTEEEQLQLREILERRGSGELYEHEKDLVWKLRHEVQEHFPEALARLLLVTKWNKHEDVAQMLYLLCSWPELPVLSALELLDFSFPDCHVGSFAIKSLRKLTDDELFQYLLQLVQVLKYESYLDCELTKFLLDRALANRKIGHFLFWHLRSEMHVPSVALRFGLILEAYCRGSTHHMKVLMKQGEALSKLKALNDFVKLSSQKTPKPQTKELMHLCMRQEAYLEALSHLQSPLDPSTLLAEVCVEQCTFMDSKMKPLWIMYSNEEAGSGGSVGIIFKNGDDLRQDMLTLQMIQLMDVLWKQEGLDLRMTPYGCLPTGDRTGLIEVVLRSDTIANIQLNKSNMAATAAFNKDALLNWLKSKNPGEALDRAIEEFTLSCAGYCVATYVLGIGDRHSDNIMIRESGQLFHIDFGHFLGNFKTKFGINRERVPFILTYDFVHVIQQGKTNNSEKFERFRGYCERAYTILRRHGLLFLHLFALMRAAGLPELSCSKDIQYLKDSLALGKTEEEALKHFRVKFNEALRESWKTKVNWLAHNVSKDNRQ
Chain of PI3Kδ (P27986 whole entry partner): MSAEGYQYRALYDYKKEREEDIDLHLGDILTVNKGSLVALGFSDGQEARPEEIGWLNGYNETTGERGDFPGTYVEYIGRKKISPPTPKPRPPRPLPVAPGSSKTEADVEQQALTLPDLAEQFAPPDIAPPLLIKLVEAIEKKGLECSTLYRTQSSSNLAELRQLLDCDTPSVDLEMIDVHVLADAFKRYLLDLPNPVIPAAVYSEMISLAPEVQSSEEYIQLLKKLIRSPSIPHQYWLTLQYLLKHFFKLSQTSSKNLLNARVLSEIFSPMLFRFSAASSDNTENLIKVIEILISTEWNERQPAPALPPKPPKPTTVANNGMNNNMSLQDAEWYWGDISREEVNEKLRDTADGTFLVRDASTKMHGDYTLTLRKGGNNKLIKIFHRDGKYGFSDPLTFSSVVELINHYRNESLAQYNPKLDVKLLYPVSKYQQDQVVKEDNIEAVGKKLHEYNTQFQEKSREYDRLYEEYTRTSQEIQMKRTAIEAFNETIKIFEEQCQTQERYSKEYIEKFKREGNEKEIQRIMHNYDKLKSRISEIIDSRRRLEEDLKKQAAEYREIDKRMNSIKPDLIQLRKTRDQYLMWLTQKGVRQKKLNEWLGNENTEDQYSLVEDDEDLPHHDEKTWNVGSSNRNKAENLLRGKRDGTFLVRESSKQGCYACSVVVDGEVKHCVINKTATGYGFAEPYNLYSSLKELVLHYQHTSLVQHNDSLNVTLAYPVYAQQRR
Procedure: 1) The compound was diluted using Echo from Labcyte company, 50 nL of the compound was transferred into an assay plate, and centrifuged at a speed of 1000 rpm for 10 sec.
2) A kinase/lipid substrate mixed solution and a kinase reaction buffer/lipid substrate mixed solution were prepared; the kinase/lipid substrate mixed solution was added into columns 3-24 of the assay plate, 3 μL per well; the kinase reaction buffer/lipid substrate mixed solution was added into columns 1-2 of the assay plat, 3 μL per well; and the plate was centrifuged at a speed of 1000 rpm for 10 sec.
3) An ATP solution was prepared, and added into the assay plate, 2 μL per well; the plate was centrifuged at a speed of 1000 rpm for 10 sec, shaken and mixed in 2nd gear mode on a plate shaker for 1 min, further centrifuged at a speed of 1000 rpm for 10 sec, and incubated for 120 min at 23° C. […]
5) A kinase detection reagent was prepared, added into the assay plate, 10 μL per well; the plate was centrifuged at a speed of 1000 rpm for 10 sec, shaken and mixed in 2nd gear mode on a plate shaker for 1 min, further centrifuged at a speed of 1000 rpm for 10 sec, incubated for 30 min at 23° C.; and then read on the multi-marker detector Envision.
IC50 results were analyzed by XLfit5 (Formula 205) of IDBS company.

MCF-7 cells = assay: In vitro test of cell activity, insulin-stimulated MCF-7 cells, ELISA-One; format: cell-based; conditions: Homo sapiens, MCF7, 2 hours compound, insulin 30 minutes
Procedure: 1) MCF-7 cells were inoculated at the density of 2.5×10^4 cells/well into 96-well plates (the culture medium used should be a complete culture medium containing 10% FBS).
2) On the next day, the medium in each well was drawn out.
3) Insulin was dissolved in a culture medium without serum, added to the cultured cells and incubated for 30 minutes, wherein the final concentration of insulin was 10 mg/mL.
4) A lysis solution was prepared according to the following method during the waiting period for the reaction: • a) Enhancer solution was removed from the refrigerator to melt in advance. • b) Enhancer solution was diluted 10-fold with the 5× Lysis Buffer to give a concentrated lysis solution. • c) The concentrated lysis solution was diluted 5-fold with double distilled water to give the lysis solution.
5) The medium in each well was completely removed and each well was quickly rinsed with PBS once.
6) 150 μL of the freshly prepared lysis solution was added to each well and shaken at room temperature for 10 min.
7) After confirming that all cells were detached, the lysis solution together with cell debris was transferred into a 1.5 mL tube. […]
9) The number of strips of ELISA-one micro-well plate that is required was calculated. […]
15) The corresponding ELISA-One filter group was assembled and used to read the fluorescence signal intensity.

T1 sequence (P42336 whole entry): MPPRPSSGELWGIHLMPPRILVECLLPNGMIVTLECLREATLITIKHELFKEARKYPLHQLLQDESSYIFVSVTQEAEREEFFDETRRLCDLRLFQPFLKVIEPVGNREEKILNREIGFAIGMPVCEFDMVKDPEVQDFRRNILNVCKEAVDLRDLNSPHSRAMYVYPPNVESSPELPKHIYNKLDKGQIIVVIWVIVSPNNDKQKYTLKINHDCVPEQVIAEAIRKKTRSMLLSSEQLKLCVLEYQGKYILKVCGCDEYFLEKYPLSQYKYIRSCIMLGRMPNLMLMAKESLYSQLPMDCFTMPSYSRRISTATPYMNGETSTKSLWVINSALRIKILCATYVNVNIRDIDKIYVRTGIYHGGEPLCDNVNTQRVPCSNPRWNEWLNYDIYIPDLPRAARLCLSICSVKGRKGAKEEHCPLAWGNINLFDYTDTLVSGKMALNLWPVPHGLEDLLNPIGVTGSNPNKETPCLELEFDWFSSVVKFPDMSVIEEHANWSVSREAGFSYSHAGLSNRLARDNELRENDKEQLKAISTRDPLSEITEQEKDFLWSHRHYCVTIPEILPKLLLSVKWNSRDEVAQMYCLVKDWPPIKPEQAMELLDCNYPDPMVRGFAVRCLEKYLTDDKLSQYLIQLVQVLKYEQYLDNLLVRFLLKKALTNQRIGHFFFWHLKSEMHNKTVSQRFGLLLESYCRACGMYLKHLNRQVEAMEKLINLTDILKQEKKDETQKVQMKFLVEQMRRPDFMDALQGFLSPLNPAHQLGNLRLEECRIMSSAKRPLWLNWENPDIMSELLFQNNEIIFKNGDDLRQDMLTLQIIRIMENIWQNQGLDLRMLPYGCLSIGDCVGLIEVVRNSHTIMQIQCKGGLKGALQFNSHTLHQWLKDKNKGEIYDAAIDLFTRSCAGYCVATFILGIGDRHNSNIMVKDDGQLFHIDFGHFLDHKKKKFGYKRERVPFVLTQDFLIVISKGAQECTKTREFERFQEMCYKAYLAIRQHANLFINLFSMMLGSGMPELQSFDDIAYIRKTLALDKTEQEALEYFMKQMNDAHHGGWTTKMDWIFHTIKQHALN
T1 sequence (P27986 whole entry partner): as the sequence (P27986 whole entry partner) above

IC50 (PI3K (p110α)): ≤ 1 nM
IC50 (mTOR): > 200 nM
IC50 (PI3Kδ): 0.5 ± 0.1 nM
IC50 (MCF-7 cells): ≤ 50 nM
SMILES: COc1ncc(-c2ccc3ncc(OCCN(C)C)c(=O)n3c2)cc1NS(=O)(=O)c1ccc(F)cc1Cl [Compound 1]
